Experiments:
Type in all cases: cell-based
HBL-100 cells = test: Cell viability by neutral red assay, HBL-100; settings: Homo sapiens, HBL-100, 144 h; ABT-263, 6 days, FIG. 16; read-out: IC50 (cell viability / killing)
Protocol: (§1) After 6 days treatment, cells were seeded into 24 well plates at a density of 1×10^4 cells/wells. After 24 h, cells were treated with reagents or vehicle for up to six days. At the end of the incubation period, medium was removed and cells were incubated with neutral red solution (40 μg/ml in phenol red and serum free DMEM) for 2 h at 37° C. After removal of the neutral red solution, wells were rinsed once with 1 ml 4% formal saline containing 0.5% CaCl2. Plates were inverted on paper towel to drain and 200 μl of elution fluid (1% acetic acid in 50% ethanol) was added. Following incubation at room temperature for 30 min with gentle shaking, absorbance at 550 nm was determined
In order to validate the previous results obtained in MDA-MB-231 cells, two other vitamin D resistant cell lines MCF-7/VD^R and HBL-100 cells, were investigated. First the effect of lenalidomide on these cells lines were investigated. To this end, cells were treated for up to 6 days with different concentrations of lenalidomide (0 μM up to 10 μM). Cell viability was measured by neutal red dye assay (FIG. 13).
(§2) More particularly, FIG. 13 illustrates the effects of lenalidomide treatment on MCF-7/VDR and HBL-100 viability. MCF-7/VDR and HBL-100 cells were treated for up to 6 days with different concentrations of lenalidomide (0 μM up to 10 μM). Cell viability was measured by neutral red dye assay. Results are mean of three independent experiments (each made in quadruplicate).
Cell viability was measured by neutral red dye assay (FIG. 14).
as §2, with “14” for “13”, “lenalidomide/1, 25-D3 co-treatment” for “lenalidomide treatment”, “(0.01” for “(0”, “1 μM) alone or in combination with different concentrations of 1, 25-D3 (0 for up to 1000 nM).” for “10 μM).”
(§3) To accomplish this, cells were treated for up to 6 days with different concentrations of a BCL-2 inhibitor, ABT-263 ([…]). Non-treated cells were used as a control. After 6 days of treatment, cell viability was measured by neutral red assay (FIG. 16). In the three cell lines, BCL-2 inhibition leads to cell death. The IC50 is almost equivalent in all cell lines (1 μM+/−0.2 μM).
(§4) More particularly, FIG. 16 illustrates the effects of BCL-2 inhibition on MCF-7VD^R and HBL-100 viability. MDA-MB-231, MCF-7/VD^R and HBL-100 cells were treated for up to 6 days with different concentrations of ABT-263 (0.2 up to 20 μM). Non-treated cells were used as a control. After 6 days of treatment, cell viability was measured by neutral red assay. Results are mean of three independent experiments (each made in quadruplicate).

MDA-MB-231 cells [1] = test: Cell viability by neutral red assay, MDA-MB-231; settings: for effect on cell viability: single agent, up to 6 days, Thalidomide 0.01-100 μM, CC-4047 and lenalidomide 0.001-10 μM, FIG. 6A
Protocol: (§5) Cells were seeded in 24 wells plates at a density of 10^4 cells per well and allowed to adhere for 24 hours. […] The drug was renewed every 2 days. Cell viability was then determined by neutral red assay, measuring absorbance at 550 nm.
as §1, §3, §4

MCF-7/VD^R cells = test: Cell viability by neutral red assay, MCF-7/VD^R; settings: Homo sapiens, MCF7, 144 h; ABT-263, 6 days, FIG. 16; read-out: IC50 (cell viability / killing)
Text: (§6) Non-treated cells were used as a control.
as §6

MCF-7 cells [2] = test: Cell growth by Sulphorhodamine B (SRB) assay, MCF-7; settings: single agent, up to 6 days, Thalidomide 0.01-100 μM, CC-4047 and lenalidomide 0.001-10 μM, FIG. 6B
Protocol: (§7) Cells were seeded in 24 wells plates at a density of 10^4 cells per well and allowed to adhere for 24 hours. […] Each treatment was carried out for up to 7 days, but renewed every 2 days. Cell growth was then determined by Sulphorhodamine B (SRB) assay, measuring absorbance at 550 nm.
(§8) After 6 days treatment, cells were seeded in 24 well plates at a density of 1×10^4 cells/well. After 24 h cells were treated with reagents or vehicle for up to six days. Cells were treated for up to 6 days with log doses of Thalidomide (0.1 μM up to 100 μM), pomalidomide and lenalidomide (0 μM up to 10 μM). At the end of each experiment, cells were fixed to the bottom of the well by addition of ice-cold 50% w/v trichloroacetic acid (TCA) to give a final concentration of 10% TCA. Plates were incubated at 4° C. for 30 minutes and then washed with distilled water. Plates were allowed to air-dry at room temperature before staining with 0.4% w/v SRB in 1% v/v acetic acid and incubated for 15 minutes on a shaker. The plates were then extensively washed with 1% acetic acid to remove unbound dye and were again allowed to air-dry at room temperature. Incorporated dye was solubilised with 200 μl […] Tris base. 100 μl aliquots were transferred to a 96 well plate and absorbance at 550 nm was determined

MCF-12A cells [3] = test: Cell growth by Sulphorhodamine B (SRB) assay, MCF-12A; settings: single agent, up to 6 days, Thalidomide 0.01-100 μM, CC-4047 and lenalidomide 0.001-10 μM, FIG. 6B
Protocol: as §7, §8

MCF-12A cells [4] = test: Cell viability by neutral red assay, MCF-12A; settings: single agent, up to 6 days, Thalidomide 0.01-100 μM, CC-4047 and lenalidomide 0.001-10 μM, FIG. 6A
Protocol: as §5, §1

MCF-7 cells [5] = test: Cell viability by neutral red assay, MCF-7; settings: single agent, up to 6 days, Thalidomide 0.01-100 μM, CC-4047 and lenalidomide 0.001-10 μM, FIG. 6A
Protocol: as §5, §1

MDA-MB-231 cells [6] = test: Cell growth by Sulphorhodamine B (SRB) assay, MDA-MB-231
Protocol: (§9) Cells were seeded in 24 wells plates at a density of 10^4 cells per well and allowed to adhere for 24 hours. To determine the combination effects of the drugs, cells were treated with 100 nM 1,25 D3 and 10 nM 1-oxo-2-(2,6-dioxopiperidin-3-yl)-4-aminoisoindoline or 1,3-dioxo-2-(2,6-dioxopiperidin-3-3-yl)-4-aminoisoindoline. Each treatment was carried out for up to 7 days, but renewed every 2 days. Cell growth was then determined by Sulphorhodamine B (SRB) assay, measuring absorbance at 550 nm.
as §9, with “per wekk” for “per well”, “and varying doses of” for “and 10 nM”, “or 1,3-dioxo-2-(2,6-dioxopiperidin-3-yl)-4-aminoisoindoline.” for “or 1,3-dioxo-2-(2,6-dioxopiperidin-3-3-yl)-4-aminoisoindoline.”
as §8

| SMILES | IC50 (HBL-100 cells) | IC50 (MDA-MB-231 cells [1]; Homo sapiens, MDA-MB-231, 144 h, ABT-263, 6 days, FIG. 16, read-out: IC50 (cell viability / killing)) | IC50 (MCF-7/VD^R cells) | effect on cell growth (MCF-7 cells [2]) | effect on cell growth (MCF-12A cells [3]) | effect on cell viability (MDA-MB-231 cells [1]) | effect on cell viability (MCF-12A cells [4]) | effect on cell viability (MCF-7 cells [5]) | minimal concentration giving statistically significant inhibition of growth (MDA-MB-231 cells [6]; in the presence of 100 nM 1,25 D3, up to 7 days, FIG. 3) | effect on cell growth (MDA-MB-231 cells [6]; single agent, 0.001-10 μM, up to 6 days) | inhibition at 100 µM (MDA-MB-231 cells [6]; Homo sapiens, MDA-MB-231, 144 h, single agent, 100 μM Thalidomide (highest dose), up to 6 days) |
| --- | --- | --- | --- | --- | --- | --- | --- | --- | --- | --- | --- |
| CC1(C)CCC(c2ccc(Cl)cc2)=C(CN2CCN(c3ccc(C(=O)NS(=O)(=O)c4ccc(N[C@H](CCN5CCOCC5)CSc5ccccc5)c(S(=O)(=O)C(F)(F)F)c4)cc3)CC2)C1 [ABT-263] | 1000 nM | 1000 nM | 1000 nM |  |  |  |  |  |  |  |  |
| Nc1cccc2c1C(=O)N(C1CCC(=O)NC1=O)C2=O (stereo not shown) [Pomalidomide, 1,3-dioxo-2-(2,6-dioxopiperidin-3-yl)-4-aminoisoindoline] |  |  |  | do not Affect | do not Affect | do not Affect | do not Affect | do not Affect | 0.1 µM | no effects |  |
| O=C1CCC(N2C(=O)c3ccccc3C2=O)C(=O)N1 (stereo not shown) [Thalidomide] |  |  |  | do not Affect | do not Affect | do not Affect | do not Affect | do not Affect |  |  | 20% |
